The source of these data is paper PMC2837848 (Biochemistry, 2010).

For assay [1], the target named is QAPRTase (Salmonella typhimurium quinolinic acid phosphoribosyltransferase) (Salmonella enterica, UniProt P30012). As to the kind of experiment: steady-state kinetics. The assay is classed as biochemical. To be noted: read-out: WT.
Assay [2] deals with QAPRTase (Salmonella typhimurium quinolinic acid phosphoribosyltransferase) (Salmonella enterica, UniProt P30012, H189A). As to the kind of experiment: biochemical.
The target of assay [3] is QAPRTase (Salmonella typhimurium quinolinic acid phosphoribosyltransferase) (Salmonella enterica, UniProt P30012, R153A). As to the kind of experiment: biochemical.

The structures appear in SMILES notation. Like-named read-outs stand apart in the source and are kept apart here.

As for `O=C(O)c1cccnc1C(=O)O` [QA, quinolinic acid], the Km in assay [1] (co-substrate PRPP) turned out to be 27 ± 6 µM.

What is called Kd is the concentration at which binding is half-saturated. In the case of `O=P(O)(O)OC[C@H]1O[C@H](OP(=O)(O)OP(=O)(O)O)[C@H](O)[C@@H]1O` [PRPP, 5-phosphoribosyl 1-pyrophosphate], the Kd is 480 ± 75 µM in assay [2] and roughly 1000 µM in assay [3]. Also, the Km in assay [1] (co-substrate QA) was 57 ± 7 µM.
